Data as given in ChEMBL document CHEMBL5465560, “Selectivity Literature for EUbOPEN Chemogenomic Library” (2024).

Tests used:
[1] = target: Calcium/calmodulin-dependent protein kinase type 1D (Homo sapiens) (UniProt Q8IU85); test: Selectivity interaction (Kinase panel (DSF assay)) EUB0001559a CAMK1D
[2] = tested on: Mast/stem cell growth factor receptor Kit (Homo sapiens), P10721 [A829P]; test: (§1) Selectivity interaction (KinomeScan (DiscoverX)) EUB0000618a KIT; settings: at 10 µM
[3] = tested on: Mast/stem cell growth factor receptor Kit (Homo sapiens), P10721 [D816V]; test: as §1; settings: at 10 µM
Chain of Mast/stem cell growth factor receptor Kit (Homo sapiens), P10721 [D816V] (P10721 whole entry D816V): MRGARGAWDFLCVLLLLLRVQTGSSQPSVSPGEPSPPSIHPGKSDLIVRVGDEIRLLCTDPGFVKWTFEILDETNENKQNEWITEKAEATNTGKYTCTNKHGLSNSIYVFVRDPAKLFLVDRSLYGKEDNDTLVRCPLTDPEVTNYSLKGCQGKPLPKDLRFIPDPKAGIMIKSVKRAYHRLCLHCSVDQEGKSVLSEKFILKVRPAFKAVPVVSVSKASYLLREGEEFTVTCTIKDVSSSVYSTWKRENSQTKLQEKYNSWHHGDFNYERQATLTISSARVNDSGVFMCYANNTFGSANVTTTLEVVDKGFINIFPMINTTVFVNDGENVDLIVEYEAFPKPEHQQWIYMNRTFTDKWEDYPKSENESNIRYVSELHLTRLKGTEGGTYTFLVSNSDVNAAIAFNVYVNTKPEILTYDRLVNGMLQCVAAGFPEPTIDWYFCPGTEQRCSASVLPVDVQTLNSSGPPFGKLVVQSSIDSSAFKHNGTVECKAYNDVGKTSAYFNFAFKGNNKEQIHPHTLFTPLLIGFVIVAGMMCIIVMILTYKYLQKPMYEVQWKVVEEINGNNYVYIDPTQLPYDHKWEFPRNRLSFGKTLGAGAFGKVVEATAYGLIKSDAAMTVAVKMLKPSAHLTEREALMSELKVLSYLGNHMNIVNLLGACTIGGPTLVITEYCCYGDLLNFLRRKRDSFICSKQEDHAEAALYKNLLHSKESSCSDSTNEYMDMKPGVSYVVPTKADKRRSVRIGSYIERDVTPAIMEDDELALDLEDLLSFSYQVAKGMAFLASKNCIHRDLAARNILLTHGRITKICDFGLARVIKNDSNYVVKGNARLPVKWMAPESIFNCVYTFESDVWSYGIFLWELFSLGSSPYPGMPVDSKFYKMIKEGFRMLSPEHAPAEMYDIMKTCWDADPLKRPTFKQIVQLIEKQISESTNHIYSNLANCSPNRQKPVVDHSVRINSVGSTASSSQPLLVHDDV

[4] = target: Mast/stem cell growth factor receptor Kit (Homo sapiens, UniProt P10721); test: as §1; settings: at 10 µM
[5] = tested on: Mast/stem cell growth factor receptor Kit (Homo sapiens), P10721 [V559D,V654A]; test: as §1; settings: at 10 µM
Chain of Mast/stem cell growth factor receptor Kit (Homo sapiens), P10721 [V559D,V654A] (P10721 whole entry V559D/V654A): as the sequence (P10721 whole entry D816V) above, with V559D, V654A, V816D counted along it

[6] = target: Serine/threonine-protein kinase 24 (Homo sapiens) (UniProt Q9Y6E0); test: Selectivity interaction (Kinase panel (DSF assay)) EUB0001558a STK24
Chain of Serine/threonine-protein kinase 24 (Homo sapiens) (Q9Y6E0 whole entry, looked up): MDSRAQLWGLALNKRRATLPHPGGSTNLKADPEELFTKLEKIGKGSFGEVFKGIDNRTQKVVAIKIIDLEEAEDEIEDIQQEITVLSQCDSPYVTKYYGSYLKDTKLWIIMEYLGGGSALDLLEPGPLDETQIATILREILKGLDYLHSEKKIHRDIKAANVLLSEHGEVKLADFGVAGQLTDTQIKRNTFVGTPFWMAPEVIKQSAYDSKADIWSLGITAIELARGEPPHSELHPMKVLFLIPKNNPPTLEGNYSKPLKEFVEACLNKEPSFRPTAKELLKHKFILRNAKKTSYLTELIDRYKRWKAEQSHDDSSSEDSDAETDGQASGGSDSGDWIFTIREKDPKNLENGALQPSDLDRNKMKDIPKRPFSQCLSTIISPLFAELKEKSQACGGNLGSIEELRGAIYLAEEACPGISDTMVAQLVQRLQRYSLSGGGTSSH

[7] = target: Tyrosine-protein kinase receptor Tie-1 (Homo sapiens) (UniProt P35590); settings: at 10 µM
[8] = target: Polycomb protein SUZ12 (Homo sapiens) (UniProt Q15022); settings: at 10 µM
[9] = target: Serine/threonine-protein kinase 38 (Homo sapiens) (UniProt Q15208); test: Selectivity interaction (Kinase panel (KiNativ target engagement assay in Jurkat cells)) EUB0001635a STK38; assay type: cell-based; settings: Selectivity number of off-targets 0.0, Selectivity number of targets 233.0, Source Knowledge https://www.sciencedirect.com/science/article/pii/S2451945619300674?via%3Dihub, at 1 µM
Chain of Serine/threonine-protein kinase 38 (Homo sapiens) (Q15208 2-465 limits assumed): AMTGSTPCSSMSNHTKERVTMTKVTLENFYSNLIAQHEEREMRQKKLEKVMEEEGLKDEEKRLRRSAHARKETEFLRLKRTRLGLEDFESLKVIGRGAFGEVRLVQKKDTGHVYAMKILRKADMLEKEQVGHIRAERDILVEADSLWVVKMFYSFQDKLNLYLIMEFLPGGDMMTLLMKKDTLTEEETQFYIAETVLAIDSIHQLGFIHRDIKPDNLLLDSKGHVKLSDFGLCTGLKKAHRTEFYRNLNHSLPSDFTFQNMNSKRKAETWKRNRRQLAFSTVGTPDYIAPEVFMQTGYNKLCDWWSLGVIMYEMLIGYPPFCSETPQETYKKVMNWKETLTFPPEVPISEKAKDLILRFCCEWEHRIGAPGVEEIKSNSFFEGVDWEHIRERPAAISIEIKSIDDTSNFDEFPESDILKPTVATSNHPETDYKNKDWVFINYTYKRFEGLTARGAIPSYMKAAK

[10] = target: T1, SNF-related serine/threonine-protein kinase (Homo sapiens) (UniProt Q9NRH2); test: Selectivity interaction (ActivX KiNativ screen (kinase selectivity in THP-1 cell lysates)) EUB0000639a SNRK; assay type: subcellular; settings: lysate, at 1 µM
T1 sequence (whole entry): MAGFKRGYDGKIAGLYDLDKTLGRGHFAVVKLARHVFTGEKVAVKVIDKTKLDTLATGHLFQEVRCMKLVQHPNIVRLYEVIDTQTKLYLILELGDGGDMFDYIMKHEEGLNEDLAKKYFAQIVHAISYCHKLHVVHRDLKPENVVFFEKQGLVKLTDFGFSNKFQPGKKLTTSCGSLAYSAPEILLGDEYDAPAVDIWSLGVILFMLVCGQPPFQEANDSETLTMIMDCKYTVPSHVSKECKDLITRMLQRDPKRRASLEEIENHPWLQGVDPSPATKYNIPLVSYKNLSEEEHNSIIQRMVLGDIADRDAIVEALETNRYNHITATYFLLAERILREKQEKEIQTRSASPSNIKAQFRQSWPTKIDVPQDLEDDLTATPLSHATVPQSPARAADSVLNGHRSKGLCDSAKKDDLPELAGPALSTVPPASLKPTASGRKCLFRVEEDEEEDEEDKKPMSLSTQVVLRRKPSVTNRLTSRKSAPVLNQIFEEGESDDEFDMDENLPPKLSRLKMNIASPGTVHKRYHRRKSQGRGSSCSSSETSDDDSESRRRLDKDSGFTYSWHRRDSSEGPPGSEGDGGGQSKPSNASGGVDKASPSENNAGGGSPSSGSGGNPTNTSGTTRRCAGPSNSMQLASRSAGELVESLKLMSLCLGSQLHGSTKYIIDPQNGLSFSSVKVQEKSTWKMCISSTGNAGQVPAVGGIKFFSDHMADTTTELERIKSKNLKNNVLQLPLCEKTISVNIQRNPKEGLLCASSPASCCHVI

[11] = target: T2, Receptor-type tyrosine-protein kinase FLT3 (Homo sapiens, UniProt P36888)
T2 sequence (P36888 whole entry): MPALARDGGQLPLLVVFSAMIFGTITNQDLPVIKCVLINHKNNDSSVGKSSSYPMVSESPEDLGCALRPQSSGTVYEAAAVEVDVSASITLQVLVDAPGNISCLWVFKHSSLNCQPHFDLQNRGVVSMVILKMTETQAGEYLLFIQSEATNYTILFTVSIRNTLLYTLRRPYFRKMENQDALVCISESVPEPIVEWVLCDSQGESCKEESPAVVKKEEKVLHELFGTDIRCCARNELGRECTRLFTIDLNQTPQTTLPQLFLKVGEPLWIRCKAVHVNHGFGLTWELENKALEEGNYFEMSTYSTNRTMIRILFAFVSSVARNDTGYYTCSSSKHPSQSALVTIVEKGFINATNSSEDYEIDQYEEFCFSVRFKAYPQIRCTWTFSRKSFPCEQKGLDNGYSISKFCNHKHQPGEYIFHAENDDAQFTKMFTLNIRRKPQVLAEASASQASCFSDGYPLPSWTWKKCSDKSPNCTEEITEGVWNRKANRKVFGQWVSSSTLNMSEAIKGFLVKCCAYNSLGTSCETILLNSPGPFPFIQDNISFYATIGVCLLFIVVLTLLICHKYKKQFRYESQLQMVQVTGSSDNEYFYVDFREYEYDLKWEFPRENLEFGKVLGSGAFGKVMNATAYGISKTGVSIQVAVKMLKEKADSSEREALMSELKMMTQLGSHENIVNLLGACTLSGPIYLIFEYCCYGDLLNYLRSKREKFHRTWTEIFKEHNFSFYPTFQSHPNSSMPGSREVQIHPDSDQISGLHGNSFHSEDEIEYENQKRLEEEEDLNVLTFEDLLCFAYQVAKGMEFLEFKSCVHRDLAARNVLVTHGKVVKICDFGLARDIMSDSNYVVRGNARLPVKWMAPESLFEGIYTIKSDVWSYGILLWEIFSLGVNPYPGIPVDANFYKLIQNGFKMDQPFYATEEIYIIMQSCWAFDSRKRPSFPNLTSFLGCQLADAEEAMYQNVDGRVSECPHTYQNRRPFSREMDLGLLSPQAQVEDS

[12] = target: Vascular endothelial growth factor receptor 2 (Homo sapiens, UniProt P35968); test: Selectivity interaction (ProQinase) EUB0000171b KDR
Chain of Vascular endothelial growth factor receptor 2 (P35968 whole entry): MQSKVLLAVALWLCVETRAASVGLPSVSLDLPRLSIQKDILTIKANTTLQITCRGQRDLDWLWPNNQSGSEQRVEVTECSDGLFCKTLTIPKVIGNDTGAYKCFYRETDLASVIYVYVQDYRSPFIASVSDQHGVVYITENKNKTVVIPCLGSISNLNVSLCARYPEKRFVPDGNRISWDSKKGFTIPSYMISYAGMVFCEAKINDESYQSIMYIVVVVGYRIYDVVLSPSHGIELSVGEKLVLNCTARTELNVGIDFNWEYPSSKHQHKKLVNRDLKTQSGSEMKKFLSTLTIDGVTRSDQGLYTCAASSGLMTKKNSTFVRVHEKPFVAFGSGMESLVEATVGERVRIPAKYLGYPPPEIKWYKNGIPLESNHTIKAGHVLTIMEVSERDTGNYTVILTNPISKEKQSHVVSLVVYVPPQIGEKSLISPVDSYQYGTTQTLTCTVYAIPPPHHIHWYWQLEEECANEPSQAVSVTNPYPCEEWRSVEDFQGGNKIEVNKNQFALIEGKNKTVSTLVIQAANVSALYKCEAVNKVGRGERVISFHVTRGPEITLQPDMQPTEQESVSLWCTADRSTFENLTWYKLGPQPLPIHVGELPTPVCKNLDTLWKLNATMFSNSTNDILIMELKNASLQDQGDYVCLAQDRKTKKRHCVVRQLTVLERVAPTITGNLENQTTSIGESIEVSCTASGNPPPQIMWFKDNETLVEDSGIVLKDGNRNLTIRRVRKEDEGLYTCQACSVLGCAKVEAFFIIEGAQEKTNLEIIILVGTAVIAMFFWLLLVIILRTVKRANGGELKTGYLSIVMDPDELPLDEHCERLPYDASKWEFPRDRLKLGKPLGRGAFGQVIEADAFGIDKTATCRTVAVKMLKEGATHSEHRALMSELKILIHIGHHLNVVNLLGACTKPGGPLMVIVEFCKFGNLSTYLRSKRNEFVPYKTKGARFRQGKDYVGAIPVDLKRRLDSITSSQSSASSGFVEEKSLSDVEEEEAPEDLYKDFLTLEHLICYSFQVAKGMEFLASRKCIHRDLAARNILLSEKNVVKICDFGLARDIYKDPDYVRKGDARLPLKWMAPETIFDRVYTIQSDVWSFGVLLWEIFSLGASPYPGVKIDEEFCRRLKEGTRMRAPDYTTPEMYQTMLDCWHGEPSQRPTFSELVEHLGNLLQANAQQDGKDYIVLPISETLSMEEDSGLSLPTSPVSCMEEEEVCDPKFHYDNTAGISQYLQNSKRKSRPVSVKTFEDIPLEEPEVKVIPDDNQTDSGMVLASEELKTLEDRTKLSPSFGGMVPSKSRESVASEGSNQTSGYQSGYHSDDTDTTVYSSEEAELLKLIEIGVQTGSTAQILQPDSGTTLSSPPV

[13] = target: CDK7/Cyclin H/MNAT1 (Homo sapiens) (UniProt P51946+P50613+P51948); test: Selectivity interaction (ProQinase) EUB0000171b CDK7; assay type: protein-complex assay
[14] = target: Transcription intermediary factor 1-beta (Homo sapiens) (UniProt Q13263); test: Selectivity interaction (Human bromodomain panel (DSF assay)) EUB0000233b TRIM28
[15] = target: Ribosomal protein S6 kinase alpha-3 (Homo sapiens, UniProt P51812); test: Selectivity interaction (Kinase panel (Z-LYTE Assay)) EUB0001632a RPS6KA3; settings: at 10 µM
[16] = target: Hepatocyte growth factor receptor (Homo sapiens, UniProt P08581); test: (§2) Selectivity interaction (KinomeScan (DiscoverX)) EUB0000695a MET; settings: at 100 nM
Chain of Hepatocyte growth factor receptor (P08581 whole entry): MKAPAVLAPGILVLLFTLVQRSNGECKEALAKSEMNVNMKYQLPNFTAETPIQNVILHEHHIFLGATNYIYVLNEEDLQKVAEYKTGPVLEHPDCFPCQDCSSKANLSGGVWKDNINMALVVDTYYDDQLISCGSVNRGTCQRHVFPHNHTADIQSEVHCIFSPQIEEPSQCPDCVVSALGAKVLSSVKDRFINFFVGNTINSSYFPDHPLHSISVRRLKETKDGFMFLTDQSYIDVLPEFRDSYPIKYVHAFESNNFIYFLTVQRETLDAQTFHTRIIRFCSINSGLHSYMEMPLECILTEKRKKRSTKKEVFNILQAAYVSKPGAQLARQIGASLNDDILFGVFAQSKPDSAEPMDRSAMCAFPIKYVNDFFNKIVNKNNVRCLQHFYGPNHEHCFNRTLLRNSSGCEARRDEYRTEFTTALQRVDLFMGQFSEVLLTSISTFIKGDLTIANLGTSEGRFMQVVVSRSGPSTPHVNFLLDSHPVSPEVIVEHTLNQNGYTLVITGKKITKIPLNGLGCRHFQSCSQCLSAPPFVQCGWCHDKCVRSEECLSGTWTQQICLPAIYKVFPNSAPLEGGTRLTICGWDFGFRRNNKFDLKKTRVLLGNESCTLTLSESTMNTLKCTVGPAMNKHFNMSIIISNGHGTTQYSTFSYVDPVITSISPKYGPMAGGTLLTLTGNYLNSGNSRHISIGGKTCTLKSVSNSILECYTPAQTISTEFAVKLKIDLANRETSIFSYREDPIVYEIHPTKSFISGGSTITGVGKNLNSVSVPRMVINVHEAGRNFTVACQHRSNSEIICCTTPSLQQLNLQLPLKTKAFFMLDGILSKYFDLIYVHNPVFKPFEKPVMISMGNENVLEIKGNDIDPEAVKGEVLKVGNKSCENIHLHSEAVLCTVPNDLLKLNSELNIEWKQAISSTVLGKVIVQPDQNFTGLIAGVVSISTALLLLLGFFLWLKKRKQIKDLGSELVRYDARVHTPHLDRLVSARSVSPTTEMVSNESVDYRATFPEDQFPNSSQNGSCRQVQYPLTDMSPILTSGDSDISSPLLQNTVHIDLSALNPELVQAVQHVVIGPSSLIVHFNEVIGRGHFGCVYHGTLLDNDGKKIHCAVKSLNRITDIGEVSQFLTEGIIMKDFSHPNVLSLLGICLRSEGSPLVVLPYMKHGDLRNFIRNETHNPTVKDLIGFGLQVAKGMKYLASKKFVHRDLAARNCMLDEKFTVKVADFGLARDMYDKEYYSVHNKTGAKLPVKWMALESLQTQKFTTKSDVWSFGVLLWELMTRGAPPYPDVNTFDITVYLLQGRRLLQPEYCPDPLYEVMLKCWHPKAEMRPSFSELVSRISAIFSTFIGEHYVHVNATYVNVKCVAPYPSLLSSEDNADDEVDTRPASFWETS

[17] = tested on: Hepatocyte growth factor receptor (Homo sapiens), P08581 [Y1235D]; test: as §2; settings: at 100 nM
[18] = tested on: Hepatocyte growth factor receptor (Homo sapiens), P08581 [M1250T]; test: as §2; settings: at 100 nM

Chain of Calcium/calmodulin-dependent protein kinase type 1D (Homo sapiens) (Q8IU85 whole entry, looked up): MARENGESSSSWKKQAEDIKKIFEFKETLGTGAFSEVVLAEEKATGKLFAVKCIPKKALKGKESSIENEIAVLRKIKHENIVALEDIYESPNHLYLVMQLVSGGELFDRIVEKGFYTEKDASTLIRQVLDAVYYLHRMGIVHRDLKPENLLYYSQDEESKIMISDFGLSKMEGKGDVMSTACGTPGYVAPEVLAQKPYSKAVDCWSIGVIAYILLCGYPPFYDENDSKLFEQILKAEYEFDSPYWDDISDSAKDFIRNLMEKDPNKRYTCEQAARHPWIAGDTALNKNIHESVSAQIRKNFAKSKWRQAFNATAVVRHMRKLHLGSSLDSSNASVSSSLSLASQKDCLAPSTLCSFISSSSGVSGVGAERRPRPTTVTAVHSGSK

Which dTM [1] does the source give for `CN(C(=O)c1cnn2cccnc12)c1cc2c(cc1N1CCOCC1)C(=O)N(C[C@@H](F)C(C)(C)O)C2` here?
Its dTM is -0.7 K.

How did the % of control [2] turn out when `O[C@H]1CC[C@H](Nc2ncc3nc(Nc4c(F)cc(F)cc4F)n([C@H]4CCOC4)c3n2)CC1` was run?
Its % of control is 77%.

What about the % of control [3] of the same compound?
The % of control was 84%.

What about the % of control [4] of the same compound?
The % of control was 96%.

What about the % of control [5] of the same compound?
Its % of control is 68%.

How did the dTM [6] turn out when `CC(C)(O)[C@H](F)CN1Cc2cc(NC(=O)c3cnn4cccnc34)c(N3CCOCC3)cc2C1=O` was run?
The dTM was 0.1 K.

For `COCC(=O)NC/C=C/c1ccc2ncnc(Nc3ccc(Oc4ccc(C)nc4)c(C)c3)c2c1` [CP-724714], which % of control [7] is on record?
The % of control was 100%.

Which % activity [8] does the source give for `CNCCN1CCC(c2cc(CN(C)C(=O)c3cccc(Oc4ccccc4)c3)ccn2)CC1` here?
Its % activity is > 90%.

With `C=CC(=O)Nc1ccc(C(=O)Nc2[nH]nc3c2CN(C(=O)N[C@H](CN(C)C)c2ccccc2)C3(C)C)cc1` as the compound, how does the % of engagement [9] read?
The % of engagement was -3.5%.

For `CC[C@@H]1[C@H](F)C(=O)N[C@@H]1COc1nccc2cc(C(N)=O)c(OC)cc12` [ZIMLOVISERTIB], which % of inhibition [10] is on record?
Its % of inhibition is 2.6%.

For `CCc1cccc(CC)c1NC(=O)c1nn(C)c2c1CCc1cnc(Nc3ccc(C(=O)NC4CCN(C)CC4)cc3OC(F)(F)F)nc1-2`, which IC50 [11] is on record?
The IC50 was > 10 µM.

For `C=CC(=O)Nc1cccc(C(=O)Nc2ccc(Nc3cc(-c4[nH]c(SC)nc4C)ccn3)cc2)c1`, which % of control ([12]; at 1 µM) is on record?
The % of control was 78%.

And the % of control ([12]; at 5 µM)?
The % of control was 50%.

And the % of control ([13]; at 1 µM)?
The % of control was 89%.

What about the % of control ([13]; at 5 µM) of the same compound?
The % of control was 86%.

For `CN(C)CCCOc1ccc(-c2cc(NCCCn3cccn3)nc(S(C)(=O)=O)n2)cc1`, which dTM [14] is on record?
Its dTM is < 2 K.

For `Cn1cc(-n2cnc3c(NCc4nc5cc(Cl)c(Cl)cc5[nH]4)nc(N4CCOCC4)nc32)cn1`, which % of control [15] is on record?
Its % of control is 4.92%.

Which results are given for `Cc1cc(F)c(C(=O)Nc2cccc(-c3nncn3C(C)C)n2)cc1-n1cnc(C2CC2)c1`?
% of control [16]: 97%; % of control [17]: 100%; % of control [18]: 100%
